The values that follow come from patent US10696703B2, “Method for producing eushearlilides” (TOKYO UNIVERSITY OF SCIENCE FOUNDATION, priority 2014, dated 2020).

Common to all, as to type: cell-based
Experiment [1] has as its system Staphylococcus aureus NBRC 12732. In words: MIC measurement by CLSI disk method, Staphylococcus aureus NBRC 12732. The conditions noted are these: for Inhibition zone: at the MIC amount per disk, mean of longest and shortest lengths of area without growth; for MIC concentration: disk method, Mueller-Hinton II agar, 36 ± 1° C., 18 to 24 hours. The procedure:
(§1) The followings were used as test microorganisms: Staphylococcus aureus NBRC 12732, Aspergillus niger NBRC 105649, and Trichophyton mentagrophytes NBRC 5466. Measurements were performed in accordance with the disk method as defined by CLSI (Clinical and Laboratory Standards Institute). A cryopreserved strain was applied onto a test-bacterium preculture medium, and precultured under predetermined conditions. A grown colony was suspended in a test-bacterium culture medium, and cultured under predetermined conditions, and then added to a test-bacterium preparation liquid to adjust the number of cells to about 107-8 CFU/mL. Further, the prepared test-bacterium liquid was subjected to 10-times serial dilution, and cultured under predetermined conditions, and the number of cells was then counted. [table] Each compound was dissolved in methanol to 1,000 μg/mL, which was used as a sample stock solution. Otsuka distilled water in an amount of 0.75 mL was added to 0.75 mL of the sample stock solution to give a volume of 500 μg/mL. This two-fold dilution was repeated in a similar way. A total of 10 test-substance dilution series was prepared so that the concentrations of the test substance were each 1000, 500, 250, 125, 63, 31, 16, 8, 4, and 2 μg/mL. A test-bacterium liquid was uniformly spread over a corresponding sensitivity measurement agar medium in a square petri dish using a swab, and disks were placed on the medium. At this time, the distance between disks was set to 24 mm or more. A test-substance diluted liquid in an amount of 50 μL was dropped on a disk. The amount of a test substance per disk was 50, 25, 12.5, 6.3, 3.1, 1.6, 0.8, 0.4, 0.2, or 0.1 μg. Each sensitivity measurement agar medium was cultured under conditions shown in Table 1 above, and the diameter of an inhibition zone where bacterial growth was not observed was measured in mm with calipers. As control, methanol was dropped on a disk instead of a test substance.

The subject of experiment [2] is Aspergillus niger NBRC 105649. Kind of experiment: MIC measurement by CLSI disk method, Aspergillus niger NBRC 105649. The conditions noted are these: for Inhibition zone: at the MIC amount per disk, mean of longest and shortest lengths of area without growth; for MIC concentration: disk method, Glucose Peptone agar, 27 ± 1° C., one week. The procedure: as §1
For experiment [3], the system named is Trichophyton mentagrophytes NBRC 5466. Kind of experiment: MIC measurement by CLSI disk method, Trichophyton mentagrophytes NBRC 5466. The conditions noted are these: for Inhibition zone: at the MIC amount per disk of the same line, mean of longest and shortest lengths of area without growth; for MIC concentration: disk method, Glucose Peptone agar, 27 ± 1° C., one week. On the procedure: as §1

For experiment [4], the system named is Staphylococcus aureus (MRSA) IID1677. Kind of experiment: MIC measurement by CLSI disk method, MRSA IID 1677. The conditions noted are these: for Inhibition zone: at the MIC amount per disk, mean of longest and shortest lengths of area without growth; for MIC: disk method, bacterial liquid 7.3 × 10^7 CFU/mL, Mueller-Hinton II agar, 35 ± 1° C., 24 h. The procedure:
(§2) The followings were used as test microorganisms: Staphylococcus aureus (MRSA) IID 1677, Staphylococcus aureus (MRSA) ATCC 43300, Enterococcus faecalis (VRE) ATCC 51575, and Enterococcus faecalis ATCC 29212.
(§3) Measurements were performed in accordance with the disk method as defined by CLSI (Clinical and Laboratory Standards Institute).
(§4) A cryopreserved strain was applied onto a test-bacterium culture medium, and precultured under predetermined conditions (Table 3). A grown colony was again precultured (Table 3), and then suspended in a test-bacterium preparation liquid, and filtered through absorbent cotton. The number of cells was then adjusted to about 107-8 CFU/mL. This was used for the tests. Further, the prepared test-bacterium liquid was subjected to 10-times serial dilution, and cultured under predetermined conditions (Table 4), and the number of cells was then counted.
(§5) Each of the compounds according to the present invention was dissolved in methanol (Wako Pure Chemical Industries, Ltd., Special grade, Content: 99.8%) to 1000 µg/mL. This was used as a sample stock solution. Otsuka distilled water in an amount of 0.8 mL was added to 0.8 mL of the sample stock solution such that the concentration of each of the compounds according to the present invention was 500 μg/mL. This two-fold dilution was repeated in a similar way. A total of 10 test-substance dilution series were prepared so that the concentrations of the test substance were each 1000, 500, 250, 125, 63, 31, 16, 8, 4, and 2 μg/mL.
(§6) A test-bacterium liquid was uniformly spread over a sensitivity measurement agar medium in a square petri dish (230×80×14.5 mm, Eiken Chemical Co., Ltd.) using a swab, and φ8-mm thick disks (for antibiotics assay, Advantec Co., Ltd.) were placed on the medium. At this time, the distance between disks was set to 24 mm or more. A test-substance diluted liquid in an amount of 50 μL was dropped on a disk. The amount of a test substance per disk was 50, 25, 12.5, 6.3, 3.1, 1.6, 0.8, 0.4, 0.2, or 0.1 μg. A sensitivity measurement agar medium was cultured under predetermined conditions (Table 4), and the width of an inhibition zone where bacterial growth was not observed was measured in mm with calipers. As control, methanol was dropped on a disk instead of a test substance.

The subject of experiment [5] is Staphylococcus aureus (MRSA) ATCC43300. In words: MIC measurement by CLSI disk method, MRSA ATCC 43300. The conditions noted are these: for Inhibition zone: at the MIC amount per disk, mean of longest and shortest lengths of area without growth; for MIC: disk method, bacterial liquid 1.0 × 10^8 CFU/mL, Mueller-Hinton II agar, 35 ± 1° C., 24 h. On the procedure:
as §2, §3, §4, §5, §6

In experiment [6] the test system is Enterococcus faecalis (VRE) ATCC51575. Kind of experiment: MIC measurement by CLSI disk method, VRE ATCC 51575. The conditions noted are these: for Inhibition zone: at the MIC amount per disk, mean of longest and shortest lengths of area without growth; for MIC: disk method, bacterial liquid 1.9 × 10^8 CFU/mL, Mueller-Hinton II agar, 35 ± 1° C., 24 h. On the procedure:
as §2, §3, §4, §5, §6

In experiment [7] the test system is Enterococcus faecalis ATCC29212. In words: MIC measurement by CLSI disk method, Enterococcus faecalis ATCC 29212. Conditions: for Inhibition zone: at the MIC amount per disk of the same line, mean of longest and shortest lengths of area without growth; for MIC: disk method, bacterial liquid 9.6 × 10^7 CFU/mL, Mueller-Hinton II agar, 35 ± 1° C., 24 h. On the procedure: as §2, §3, §4, §5, §6

As for `C[C@@H]1C/C=C/CC/C=C/CCCCCCCCCCCC[C@@H](OP(=O)([O-])OCC[N+](C)(C)C)CC(=O)O1` [Compound A], the Inhibition zone in experiment [1] is on record as 2 mm; in experiment [2], 3.7 mm; in experiment [3], 2.5 mm. The MIC concentration in experiment [1] was determined as 50 μg/disk; in experiment [2], 50 μg/disk; in experiment [3] it was 25 μg/disk.

`C[C@@H]1C/C=C/CC/C=C\CCCCCCCCCCCC[C@@H](OP(=O)([O-])OCC[N+](C)(C)C)CC(=O)O1` [Compound B]: the Inhibition zone in experiment [1] is 2.2 mm; in experiment [2], 3.7 mm; in experiment [3] it was 3.9 mm. Also, the MIC concentration in experiment [1] turned out to be 50 μg/disk; in experiment [2], 50 μg/disk; in experiment [3], 12.5 μg/disk.

For the molecule `C[C@@H]1C/C=C/CC/C=C\CCCCCCCCCCCC[C@H](OP(=O)([O-])OCC[N+](C)(C)C)CC(=O)O1` [Compound C], the Inhibition zone is reported as 1.5 mm in experiment [1], 1 mm in experiment [2] and 5.1 mm in experiment [3]. The MIC concentration came out at 50 μg/disk in experiment [1], 50 μg/disk in experiment [2] and 12.5 μg/disk in experiment [3].

Take `C[C@H]1C/C=C/CC/C=C/CCCCCCCCCCCC[C@H](OP(=O)([O-])OCC[N+](C)(C)C)CC(=O)O1` [Compound D, (3S,16E,20E,23S)-(+)-Eushearilide]: the Inhibition zone in experiment [4] was 1.4 mm; in experiment [5], 3.0 mm; in experiment [6], 4.7 mm; in experiment [7], 2.2 mm. In addition, the MIC in experiment [4] is reported as 50 μg/disk; in experiment [5], 50 μg/disk; in experiment [6] it was 50 μg/disk; in experiment [7], 25 μg/disk.

For the molecule `C[C@@H]1C/C=C/CC/C=C/CCCCCCCCCCCC[C@H](OP(=O)([O-])OCC[N+](C)(C)C)CC(=O)O1` [Compound E, (3S,16E,20E,23R)-(+)-Eushearilide], the Inhibition zone in experiment [4] came out at 2.2 mm; in experiment [5], 3.3 mm; in experiment [6], 6.9 mm; in experiment [7] it was 0.0 mm. The MIC was 50 μg/disk in experiment [4], 50 μg/disk in experiment [5], 50 μg/disk in experiment [6] and greater than 50 μg/disk in experiment [7].

As for `C[C@H]1C/C=C/CC/C=C/CCCCCCCCCCCC[C@@H](OP(=O)([O-])OCC[N+](C)(C)C)CC(=O)O1` [Compound F, (3R,16E,20E,23S)-(−)-Eushearilide], the Inhibition zone in experiment [4] was 3.1 mm; in experiment [5], 2.4 mm; in experiment [6] it was 5.8 mm; in experiment [7], 7.7 mm. Moreover, the MIC in experiment [4], in experiment [5], in experiment [6] and in experiment [7] was 50 μg/disk each time.

For `C[C@H]1C/C=C/CC/C=C\CCCCCCCCCCCC[C@H](OP(=O)([O-])OCC[N+](C)(C)C)CC(=O)O1` [Compound G, (3S,16Z,20E,23S)-(+)-Eushearilide], the Inhibition zone is given as 2.3 mm in experiment [4], 0.9 mm in experiment [5], 6.7 mm in experiment [6] and 8.4 mm in experiment [7]. Further, the MIC in experiment [4], in experiment [5], in experiment [6] and in experiment [7] was 50 μg/disk in each case.

Take `C[C@H]1C/C=C/CC/C=C\CCCCCCCCCCCC[C@@H](OP(=O)([O-])OCC[N+](C)(C)C)CC(=O)O1` [Compound H, (3R,16Z,20E,23S)-(−)-Eushearilide]: the Inhibition zone in experiment [4] was 3.0 mm; in experiment [5], 2.7 mm; in experiment [6] it was 5.5 mm; in experiment [7], 3.3 mm. The MIC in experiment [4], in experiment [5], in experiment [6] and in experiment [7] was 50 μg/disk in each case.
